These results are taken from patent publication US20170231911A1, “METHODS AND COMPOSITIONS FOR IMPROVING OUTCOMES OF LIPOSOMAL CHEMOTHERAPY” (Merrimack Pharmaceuticals, Inc., priority 2013, published 2017).

The subject of series [1] is BT474-M3 breast cancer tumor cells. The settings on record: cyclophosphamide 170 mg/kg pre-dose.
Description: NCR/nu mice are inoculated with 15×10^6 BT474-M3 cells (into the mammary fat pad, in 50 μl media), 20×10^6 MDA-MB-453 (s.c. into the right flank of the mouse in 100 μl of media) or 10×10^6 MCF-7 HER2 cells (into the mammary fat pad, in 50 μl media). […] When tumors reached an average volume of 200-300 mm^3, mice are pre-dosed or not with cyclophosphamide (i.p. 170 mg/kg) at different time points as indicated. Mice are subsequently dosed with DiI5-labeled anthracycline-loaded anti-HER2 immunoliposome-targeted liposomal doxorubicin (3 mg/kg), DiI5-labelled liposomal doxorubicin PLD (3 mg/kg), or free doxorubicin all at (3 mg/kg). […]
Tumor, heart and the dorsal skin are collected and frozen at −80° for further HPLC doxorubicin quantification.
Tumors, hearts and dorsal skin are weighed and minced. […] Supernatants and doxorubicin standards are analyzed by HPLC (Dionex) using a C18 reverse phase column (Synergi Polar-RP 80A 250×4.60 mm 4 μm column). […] The doxorubicin peak is detected at 6.9 min using an in-line fluorescence detector excited at 485 nm, and emitting at 590 nm. The extraction efficiency of doxorubicin from tumor, heart and skin tissues is estimated using internal control tissues spiked with known amounts of doxorubicin, and sample readings are corrected to account for the extraction efficiency. […]
Where [2] appears, read: 96 hours after cyclophosphamide treatment.

Description for BT474-M3 tumor: Slides are air-dried and mounted with ProLong® Gold with Hoechst® stain to counterstain nuclei. Cleaved caspase 3, γ-H2AX, cleaved PARP and cytokeratin stainings are performed on FFPE-sections (5 μm thick). After deparaffinization and rehydration, heat-mediated antigen retrieval is performed on a in a pre-treatment module (Thermo Scientific, Waltham, Mass.) in citrate buffer (pH 6) for 25 min at 102° C. After antigen retrieval, slides are stained on a Lab Vision Autostainer® 360 (Thermo Scientific). Endogenous peroxidase activity is blocked with Peroxidazed® 1 (10 min at RT) followed by a washing step with TBST and a protein blocking step with Background Sniper (10 min at RT). Next, slides are incubated with the primary antibodies diluted in Da Vinci Green or Signal Stain® Antibody diluent for 1 hr at room temperature (RT). After washing, slides are incubated with secondary antibodies for 30 min at RT Antibodies used are goat anti-mouse Alexa Fluor® 488 and goat anti-rabbit Alexa Fluor® 647, diluted in Da Vinci Green, for the γ-H2AX and cleaved caspase 3 antibodies, respectively; and EnVision®+ System-HRP labeled Polymer anti-rabbit (for the signal amplification of the cleaved PARP signal) containing the secondary antibody for cytokeratin (goat anti-mouse Alexa Fluor® 555) for the cleaved PARP and cytokeratin double staining. After washing, for the signal amplification of cleaved PARP, samples are incubated with TSA™ Cyanine 5 Tyramide Reagent for 10 min at RT. Slides are washed and counterstained with Hoechst followed by a wash step and mounting with ProLong® Gold. Slides are imaged on an Aperio® FL slide scanner at 20× magnification.
Images are analyzed using rulesets written in Definiens® Developer XD 2 (Definiens, Munich, Germany). Images are analyzed as full tumor or heart tissues. […]
The extent of cleaved PARP positive tumor cells is determined in cleaved PARP and cytokeratin double stained tumor sections. […]

Take `O.O=P1(N(CCCl)CCCl)NCCCO1` (stereo not shown) [cyclophosphamide, 2-[bis(2-chloroethyl)amino]tetrahydro-2H-1,3,2-oxazaphosphorine 2-oxide monohydrate]: in series [1], the “effect of cyclophosphamide on non-target organs such as skin or heart” value was “no effects were observed”. Also, in the series with BT474-M3 tumor (setting [2]), the “effect on non-tumor cells” value is given as “non-tumor cells were unaffected” and the “interstitial space vs control” value is on record as “significantly more interstitial space than the control cell sample”. For the same compound, the “tumor cell apoptosis, tumor cell density and interstitial space” value in the series on BT474-M3 tumor (tissue harvested 48 hr-120 hr post cyclophosphamide) is “induction of tumor cell apoptosis and consequent reduction of tumor cell density and increase in interstitial space”.
